Reference: paper PMC3574212 (Journal of medicinal chemistry, 2013)
“Also recorded” adds a separate entry of the source. Where a name gives a salt, the structure may show the parent alone. Blank lines part the entries; values can stand above or below the compound they belong to.

Assays:
type II PKA holoenzyme = test: Counter screening assay, type II PKA holoenzyme kinase activity; type: biochemical; conditions: 25 µM compound, 0.1 mM cAMP
type I PKA holoenzyme = test: Counter screening assay, type I PKA holoenzyme kinase activity; type: biochemical; conditions: 25 µM compound, 0.1 mM cAMP
[1] = test system: HEK293 cells stably expressing the PKA sensor AKAR3; test: FRET-based live-cell assay for PKA; conditions: 10 µM 20i, 10 µM 8-Br-cAMP-AM
HEK293/EPAC1-FL = molecular target: T1, HEK293/EPAC1-FL (Homo sapiens, UniProt O95398); test: FRET-based live-cell assay for EPAC1 activation; conditions: 10 µM 20i, 10 µM 007-AM
T1 sequence (O95398 1-923): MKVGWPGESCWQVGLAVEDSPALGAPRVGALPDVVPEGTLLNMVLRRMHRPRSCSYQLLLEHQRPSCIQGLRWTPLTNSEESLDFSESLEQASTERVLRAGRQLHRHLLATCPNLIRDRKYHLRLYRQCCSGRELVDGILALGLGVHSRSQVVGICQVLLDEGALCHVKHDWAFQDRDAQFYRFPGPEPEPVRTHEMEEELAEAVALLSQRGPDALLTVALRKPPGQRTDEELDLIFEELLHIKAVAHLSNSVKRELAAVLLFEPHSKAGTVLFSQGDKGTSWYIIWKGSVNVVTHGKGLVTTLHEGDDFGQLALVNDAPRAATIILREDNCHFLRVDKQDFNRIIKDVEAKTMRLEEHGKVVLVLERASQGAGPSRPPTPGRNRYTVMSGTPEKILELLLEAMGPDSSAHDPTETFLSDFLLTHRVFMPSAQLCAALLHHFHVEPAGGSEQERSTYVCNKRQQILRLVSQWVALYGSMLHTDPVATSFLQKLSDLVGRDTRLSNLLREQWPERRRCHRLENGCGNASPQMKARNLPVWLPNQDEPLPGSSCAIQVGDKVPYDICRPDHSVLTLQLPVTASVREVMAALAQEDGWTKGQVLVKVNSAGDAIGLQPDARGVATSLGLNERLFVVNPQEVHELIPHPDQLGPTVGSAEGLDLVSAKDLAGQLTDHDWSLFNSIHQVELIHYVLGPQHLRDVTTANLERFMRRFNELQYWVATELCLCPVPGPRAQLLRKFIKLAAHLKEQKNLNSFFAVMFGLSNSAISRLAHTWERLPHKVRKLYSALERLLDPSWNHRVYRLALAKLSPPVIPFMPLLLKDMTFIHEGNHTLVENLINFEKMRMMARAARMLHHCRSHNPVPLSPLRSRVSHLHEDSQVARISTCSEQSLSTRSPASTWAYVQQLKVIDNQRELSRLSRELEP

EPAC1 [2] = molecular target: T2, EPAC1 (Homo sapiens, UniProt O95398); test: cAMP-mediated EPAC1 GEF activity; type: biochemical; conditions: 25 µM compound in the presence of 25 µM cAMP
T2 sequence (O95398 1-923): T1 sequence (O95398 1-923)

HEK293/EPAC2-FL cells = HEK293/EPAC2-FL cells (Homo sapiens, UniProt Q8WZA2); test: FRET-based live-cell assay for EPAC2 activation; conditions: 10 µM 20i pretreatment, 10 µM 007-AM
HEK293/EPAC2-FL cells, sequence (Q8WZA2 whole entry): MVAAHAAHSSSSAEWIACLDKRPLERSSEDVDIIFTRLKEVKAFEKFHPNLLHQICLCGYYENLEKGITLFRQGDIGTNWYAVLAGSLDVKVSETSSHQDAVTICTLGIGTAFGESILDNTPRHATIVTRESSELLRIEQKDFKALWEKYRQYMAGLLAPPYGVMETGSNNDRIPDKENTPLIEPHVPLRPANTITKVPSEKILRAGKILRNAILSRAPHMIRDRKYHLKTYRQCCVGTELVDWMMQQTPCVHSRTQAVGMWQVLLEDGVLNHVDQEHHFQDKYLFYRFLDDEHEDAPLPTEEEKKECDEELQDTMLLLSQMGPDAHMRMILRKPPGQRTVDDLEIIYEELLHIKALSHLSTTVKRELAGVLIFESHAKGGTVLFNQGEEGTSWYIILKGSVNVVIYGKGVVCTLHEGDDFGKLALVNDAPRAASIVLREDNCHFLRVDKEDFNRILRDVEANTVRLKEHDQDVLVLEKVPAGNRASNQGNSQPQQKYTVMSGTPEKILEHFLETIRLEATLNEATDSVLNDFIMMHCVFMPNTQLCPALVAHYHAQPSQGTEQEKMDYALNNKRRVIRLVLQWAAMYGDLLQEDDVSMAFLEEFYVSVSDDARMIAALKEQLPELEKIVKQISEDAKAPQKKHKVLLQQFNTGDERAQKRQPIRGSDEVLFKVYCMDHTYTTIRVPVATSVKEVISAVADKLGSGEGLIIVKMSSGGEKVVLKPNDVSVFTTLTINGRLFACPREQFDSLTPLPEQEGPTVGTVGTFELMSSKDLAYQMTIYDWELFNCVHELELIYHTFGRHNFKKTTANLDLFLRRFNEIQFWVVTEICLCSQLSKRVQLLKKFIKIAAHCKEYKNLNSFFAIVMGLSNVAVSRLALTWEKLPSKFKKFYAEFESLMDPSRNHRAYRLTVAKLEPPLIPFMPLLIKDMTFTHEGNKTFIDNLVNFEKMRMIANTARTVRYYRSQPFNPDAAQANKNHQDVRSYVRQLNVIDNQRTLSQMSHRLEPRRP

EPAC2 [3] = molecular target: T3, EPAC2 (Mus musculus, UniProt Q9EQZ6); test: cAMP-mediated EPAC2 GEF activity; type: biochemical; conditions: 25 µM compound in the presence of 25 µM cAMP
T3 sequence (Q9EQZ6 1-1011): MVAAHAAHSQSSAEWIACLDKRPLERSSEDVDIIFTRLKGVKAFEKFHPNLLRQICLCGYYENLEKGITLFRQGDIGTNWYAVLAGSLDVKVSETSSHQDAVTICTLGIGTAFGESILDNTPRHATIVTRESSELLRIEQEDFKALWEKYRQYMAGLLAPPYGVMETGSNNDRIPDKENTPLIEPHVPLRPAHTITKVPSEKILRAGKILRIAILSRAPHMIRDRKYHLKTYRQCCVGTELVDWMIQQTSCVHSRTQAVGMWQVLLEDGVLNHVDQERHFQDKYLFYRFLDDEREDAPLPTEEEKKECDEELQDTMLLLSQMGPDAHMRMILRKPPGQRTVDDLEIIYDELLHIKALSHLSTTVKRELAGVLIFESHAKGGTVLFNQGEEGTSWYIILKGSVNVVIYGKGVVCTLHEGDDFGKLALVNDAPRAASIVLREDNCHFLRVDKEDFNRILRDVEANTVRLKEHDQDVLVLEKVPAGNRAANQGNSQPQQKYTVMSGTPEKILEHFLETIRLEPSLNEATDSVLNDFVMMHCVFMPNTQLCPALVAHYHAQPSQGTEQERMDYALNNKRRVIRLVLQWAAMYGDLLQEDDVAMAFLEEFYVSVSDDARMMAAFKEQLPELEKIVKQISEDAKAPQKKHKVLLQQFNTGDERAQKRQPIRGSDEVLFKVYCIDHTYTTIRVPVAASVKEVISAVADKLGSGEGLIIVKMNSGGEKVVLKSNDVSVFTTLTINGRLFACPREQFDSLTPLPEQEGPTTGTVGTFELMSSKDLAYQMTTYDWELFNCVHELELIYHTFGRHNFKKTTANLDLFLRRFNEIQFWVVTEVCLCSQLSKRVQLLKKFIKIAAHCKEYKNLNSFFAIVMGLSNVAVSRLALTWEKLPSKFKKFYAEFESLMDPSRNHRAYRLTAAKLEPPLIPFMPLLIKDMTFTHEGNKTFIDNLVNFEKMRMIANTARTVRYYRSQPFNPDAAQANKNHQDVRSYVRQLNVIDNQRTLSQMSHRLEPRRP

EPAC2 [4] = molecular target: T3, EPAC2; test: 8-NBD-cAMP competition binding assay; conditions: for Relative Potency (RA): RA = IC50, cAMP/ IC50, compound; for EPAC2 inhibitory activity (in words): 8-NBD-cAMP competition
EPAC1 [5] = molecular target: T2, EPAC1; conditions: cAMP-mediated EPAC1 GEF activity; ref 18b; cited from earlier work

- Effect on cAMP-induced type II PKA holoenzyme activation (type II PKA holoenzyme): not to significantly alter
- Effect on cAMP-induced type I PKA holoenzyme activation (type I PKA holoenzyme): not to significantly alter
SMILES: Cc1cc(C)c(S(=O)(=O)n2cc(C)cc2C)c(C)c1 [Compound 20i, 2,4-Dimethyl-1-(2,4,6-trimethylbenzenesulfonyl)-1H-pyrrole]
- Inhibition of 8-Br-cAMP-AM induced PKA activation (AKAR3 FRET) [1]: not inhibited; also recorded: did not affect PKA activation
- Block of 007-AM induced decrease of FRET (EPAC1 activation) (HEK293/EPAC1-FL): incapable of blocking; also recorded: not EPAC1 activation
- Inhibition of EPAC1-mediated Rap1-GDP exchange activity (EPAC1 [2]): no inhibition; also recorded: not to inhibit
- Block of 007-AM induced decrease of FRET (EPAC2 activation) (HEK293/EPAC2-FL cells): fully blocked; also recorded: blocked EPAC2
- Inhibition of EPAC2 GEF activity (EPAC2 [3]): inhibit EPAC2 GEF activity to basal levels

- EPAC2 inhibitory activity (in words) (EPAC2 [4]): almost retained activity
- Relative Potency (RA) (EPAC2 [4]): 16.7
SMILES: Cc1cc(C)c(S(=O)(=O)n2ccc3cccnc32)c(C)c1 [Compound 24d, 1-(2,4,6-Trimethylbenzenesulfonyl)-1H-pyrrolo[2,3-b]pyridine]

- EPAC2 inhibitory activity (in words) (EPAC2 [4]): less active with a moderate potency
- Relative Potency (RA) (EPAC2 [4]): 3.7
SMILES: Cc1cc(C)c(S(=O)(=O)n2ccc3cc(C(=O)O)ccc32)c(C)c1 [Compound 22c, 1-(2,4,6-Trimethylbenzenesulfonyl)-1H-indole-5-carboxylic acid]

- Relative Potency (RA) (EPAC2 [4]): 3.2
SMILES: Cc1cc(C)c(S(=O)(=O)n2ccc3ccncc32)c(C)c1 [Compound 24c, 1-(2,4,6-Trimethylbenzenesulfonyl)-1H-pyrrolo[2,3-c]pyridine]

- Relative Potency (RA) (EPAC2 [4]): 30.8
SMILES: CCc1cccn1S(=O)(=O)c1ccc(C)cc1C [Compound 20h, 1-(2,4-Dimethylbenzenesulfonyl)-2-ethyl-1H-pyrrole]

Second part, the compound before the results:

SMILES: O=S(=O)(NCCNC/C=C/c1ccc(Br)cc1)c1cccc2cnccc12 [Compound H89, N-[2-[[3-(4-bromophenyl)-2-propenyl]amino]ethyl]-5-isoquinolinesulfonamide dihydrochloride, reference compound]
- Effect on cAMP-induced type II PKA holoenzyme activation (type II PKA holoenzyme): blocked the type I or II PKA activities completely
- Effect on cAMP-induced type I PKA holoenzyme activation (type I PKA holoenzyme): blocked the type I or II PKA activities completely

SMILES: Cc1cc(C)c(Nc2cc(Cl)ccc2Cl)c(C)c1 [Compound 14c, (2,5-Dichlorophenyl)-(2,4,6-trimethylphenyl)amine]
- Effect on cAMP-induced type II PKA holoenzyme activation (type II PKA holoenzyme): not to significantly alter
- Effect on cAMP-induced type I PKA holoenzyme activation (type I PKA holoenzyme): not to significantly alter
- Inhibition of EPAC1-mediated Rap1-GDP exchange activity (EPAC1 [2]): no inhibition; also recorded: not to inhibit
- fold more potent than cAMP (EPAC2 [4]; 8-NBD-cAMP competition in binding EPAC2): about 100 fold
- Relative Potency (RA) (EPAC2 [4]): 100
- Inhibition of EPAC2 GEF activity (EPAC2 [3]): inhibit EPAC2 GEF activity to basal levels

SMILES: Cc1cc(C)c(S(=O)(=O)c2ccc(OC3CCN(C(=O)OC(C)(C)C)CC3)cc2)c(C)c1 [Compound 11b, 4-[4-(2,4,6-Trimethylbenzenesulfonyl)phenoxy]-piperidine-1-carboxylic acid tert-butyl ester]
- IC50 (EPAC2 [4]): > 300 µM
- Relative Potency (RA) (EPAC2 [4]): <0.13

SMILES: Cc1cc(C)c(S(=O)(=O)c2ccc(-c3ccc(F)nc3)cc2)c(C)c1 [Compound 9, 2-Fluoro-5-[4-(2,4,6-trimethylbenzenesulfonyl)phenyl]pyridine]
- IC50 (EPAC2 [4]): > 300 µM
- Relative Potency (RA) (EPAC2 [4]): <0.13

SMILES: Nc1ccc(Nc2ccc(N)cc2S(=O)(=O)O)cc1 [Compound 2]
- Selectivity EPAC2 vs EPAC1 of HTS hits (EPAC1 [5]): not exclusively specific for EPAC2
- Relative Potency (RA) (EPAC2 [4]): 2.2

SMILES: Cc1ccc(S(=O)(=O)c2c(C)cc(C)cc2C)cc1 [Compound 1]
- Effect on cAMP-induced type II PKA holoenzyme activation (type II PKA holoenzyme): not to significantly alter
- Effect on cAMP-induced type I PKA holoenzyme activation (type I PKA holoenzyme): not to significantly alter
- Inhibition of EPAC1-mediated Rap1-GDP exchange activity (EPAC1 [2]): no inhibition; also recorded: not to inhibit
- Inhibition of EPAC2 GEF activity (EPAC2 [3]): inhibit EPAC2 GEF activity to basal levels

SMILES: CCc1cccn1S(=O)(=O)c1ccccc1C [Compound 20f, 2-Ethyl-1-(toluene-2-sulfonyl)-1H-pyrrole]
- Relative Potency (RA) (EPAC2 [4]): 7.5

SMILES: CCc1cccn1S(=O)(=O)c1ccc(C)cc1 [Compound 20b, 2-Ethyl-1-(toluene-4-sulfonyl)-1H-pyrrole]
- Relative Potency (RA) (EPAC2 [4]): 10

SMILES: CCCCCc1ccc(S(=O)(=O)c2c(C)cc(C)cc2C)cc1 [Compound 5b, 1,3,5-Trimethyl-2-(4-pentylbenzenesulfonyl)benzene]
- IC50 (EPAC2 [4]): > 300 µM
- Relative Potency (RA) (EPAC2 [4]): <0.13
